Results on 2 compounds are retold here after US6844356B2, “Hemorrhoid therapeutic treatment” (priority 2003, dated 2005).

For series [1] the following is noted: cited from earlier work.
Another series deals with hemorrhoid. The series can be described thus: injection of the solution into the hemorrhoid of patients. Particulars: injected into the hemorrhoid as water solution. It is filed as in vivo. The method, then:
A chemical treatment for the permanent relief of hemorrhoids is provided by the chemical composition of this invention. The composition comprises a mixture of Yong Noe, a Chinese herb known to Western man as camphor, quinine, and distilled water. These two ingredients are ground into powder and dissolved in distilled water. The composition is then injected by a medical practitioner into the affected area at least once, and perhaps several times, over a two week period. After a period of time, the hemorrhoidal tissue will turn dark, harden, and flake off leaving the skin clear at the site of the former hemorrhoid. A mixture of Yong Noe and quinine in a […] in an amount of 37.5 grams are divided into 7 equal weight portions. Each portion of the mixture is dissolved in 4 grams of water by placing the composition in a container in boiling water for 3-5 minutes. The composition is a clear whitish solution. This solution is used at room temperature as the medicament for the treatment of hemorrhoids as will be discussed infra. […] The composition of 37.5 grams of solids is comprised of 25 grams of quinine and 12.5 grams of camphor. This mixture is equally divided and filled into seven different 10 cc vials, and 4 cc distilled water is added to each vial. […]

Turning to `CC12CCC(CC1=O)C2(C)C` (centres unmarked) [Camphor], the solubility entry in series [1] is recorded as “only slightly soluble in water”.

Consider `C=C[C@H]1C[N@@]2CC[C@H]1C[C@H]2[C@H](O)c1ccnc2ccc(OC)cc12` [quinine alone, quinine], for which, in the series on hemorrhoid, the “result of injection into the hemorrhoid” value is recorded as “not effectual”.
